Reference: US4670435A, “10,11-dihydro-5H-dibenzo[a,d]cycloheptadiene derivatives in a method for treating cardiac arrhythmia” (priority 1984, dated 1987)
Counter-ions that a name gives are not always drawn.

Tests used:
arrhythmias = assay: Antiarrhythmic action, aconitine infusion, rat, oral administration; format: in vivo, Sprague-Dawley rats; settings: for ED50: Rattus norvegicus, po, read-out: ED 50% (dose which prolongs the aconitine infusion duration by 50%)
Protocol: (§1) The substances were administered orally to Sprague-Dawley rats weighing 200-250 g. 45 minutes thereafter, the animals were anesthetized with 100 mg/kg of thiobutabarbital Na, administered intraperitoneally. Aconitine, as an arrhythmogenic substance, was infused intravenously into the jugular vein 60 minutes after administration of the substance (dosage rate: 0.005 mg per kg per min). In the case of untreated animals (N=52), arrhythmias appeared in the ECG after 2.74±0.07 minutes, the appearance of these arrhythmias being delayed by antiarrhythmic agents in a dose-dependent manner.
(§2) The dose which prolongs the duration of aconitine infusion by 50%, ie. the ED 50%, was determined from the linear relationship between log dose (mg/kg) of the test substances and the relative prolongation of aconitine infusion duration (Δ%).

[1] = Therapeutic index: quotient of acute toxic dose to antiarrhythmic ED 50%; set-up: species or system Sprague-Dawley rats; settings: in vivo; Table 2; rat, oral administration; measure of therapeutic index; read-out: Q (quotient of acute toxic dose to antiarrhythmic ED 50%)
Protocol: as §1, §2
(§3) Furthermore, the dose at which toxic symptoms (change in the initial ECG, cyanosis or cramp) occur was determined from the geometric progression of doses (factor 2.154) used in the experiments.
The quotient of acute toxic dose to antiarrhythmic ED 50% was determined as a measure of the therapeutic index of the novel compounds.

[2] = Acute toxicity: dose at which first toxic symptoms (change in initial ECG, cyanosis or cramp) occur, rat, oral; format: in vivo, Sprague-Dawley rats; settings: Table 2, oral administration, geometric progression of doses (factor 2.154)
Protocol: as §1, §3

| Compound | ED50 (arrhythmias) | selectivity ratio [1] | Toxic dose (dose at which the first toxic symptoms are observed) [2] | ED 50% (dose which prolongs the aconitine infusion duration by 50%) (arrhythmias; Table 2, rat, oral administration, 60 minutes before aconitine i.v. infusion 0.005 mg per kg per min) |
| --- | --- | --- | --- | --- |
| CCCNCC(C)(O)CC1c2ccccc2CCc2ccccc21 (stereo not shown) [Example 5] | 7.78 mg/kg |  |  |  |
| C=C[C@H]1C[N@@]2CC[C@H]1C[C@@H]2[C@@H](O)c1ccnc2ccc(OC)cc12 [Quinidine, quinidine, reference compound] |  | 11 | 464 mg/kg | 43.5 mg/kg |
| CC(O)(CC1c2ccccc2CCc2ccccc21)CN1CCC(O)(c2ccccc2)CC1 (stereo not shown) [Example 9] | 2.57 mg/kg |  |  |  |
| COCC(C)NCC(C)(O)CC1c2ccccc2CCc2ccccc21 (stereo not shown) [Example 6] | 6.83 mg/kg |  |  |  |
| CC(O)(CNC(C)(C)C)CC1c2ccccc2CCc2ccccc21 (stereo not shown) [Example 4] | 6.47 mg/kg | 33 | 215 mg/kg |  |
| CC(C)NCC(C)(O)CC1c2ccccc2CCc2ccccc21 (stereo not shown) [Example 1, N-[2-hydroxy-2-methyl-3-(10,11-dihydro-5H-dibenzocycloheptadienyl)-propyl]-N-isopropylamine hydrochloride] | 6.51 mg/kg |  |  |  |
| CNCC(C)(O)CC1c2ccccc2CCc2ccccc21 (stereo not shown) [Example 3] | 3.11 mg/kg | 32 | 100 mg/kg |  |
